Measured values published in paper PMC6177136, “Hybrid topoisomerase I and HDAC inhibitors as dual action anticancer agents” (PLoS ONE, 2018).
Where two headings read alike, the source gives them in different places.

Columns and labels:
H2A.X = assay: Western blot, H2A.X induction in NCI-H460 cells; format: cell-based, Human; conditions: 24 h; SAHA 5 μM, SN38 0.05 μM, 3d 0.125–0.2–0.5 μM
Protocol: (§1) The supernatant, containing the total proteins extracts, were transferred in new vials. The protein concentration was measured by Bradford Protein Assay. Equal amounts of proteins for each sample were then resolved by SDS-PAGE and loaded on 10–12% polyacrilamide gels. The proteins were then transferred on nitrocellulose membranes. Molecular weights were estimated based upon the relative migration with molecular weight protein markers.
(§2) The non-specific binding was blocked by incubation of membranes in TBS-tween (25 mM Tris, 150 mM NaCl, 0.1% Tween 20) with 5% nonfat dry milk (BIORAD, Milan) for 60 minutes. Subsequently, the membrane was incubated overnight with primary antibodies: anti-Histone H4 (Millipore, 1:500), anti-acetyl-H4 (Santa Cruz, 1:1000) anti-p21 (Santa Cruz, 1:1000), anti-acetyl-tubulin (abcam, 1:1000), anti-α-tubulin (Sigma, 1:5000), anti β-actin (Sigma, 1:5000) and anti-Topoisomerase 1 (Santa Cruz, 1:500). After three washes with TBST blots were incubated with HRP-coniugated secondary anti-mouse and anti-rabbit (Santa Cruz, 1:5000) 1 hour at room temperature. After three washes with TBST the blots were developed with ECL substrate (GE Healthcare) and chemiluminescence detected by ChemiDoc Imaging System (Biorad). The optical density of the protein bands detected by western blotting was normalized on α -tubulin levels and analyzed by ChemiDoc software (Biorad).
(§3) Cells were lysed in 0.5% NP-40 and 40 μg of total proteins were loaded on NuPAGE 4–12% (Invitrogen), transferred to a nitrocellulose paper and probed with specific antibodies.

p53 = assay: Western blot, p53 in NCI-H460 cells; format: cell-based, Human; conditions: 24 h; SAHA 5 μM, SN38 0.05 μM, 3d 0.125–0.2–0.5 μM
Protocol: as §1, §2, §3

CycD1 = assay: Western blot, CycD1 in NCI-H460 cells; format: cell-based, Human; conditions: 24 h; SAHA 5 μM, SN38 0.05 μM, 3d 0.125–0.2–0.5 μM
Protocol: as §1, §2, §3

NCI-H460 = assay: Cytotoxicity assay (SRB, 72 h) NCI-H460; format: cell-based, Human; conditions: for IC50: 72 h, SRB assay, read-out: IC50 ± SD NCI-H460
p16 = assay: Western blot, p16 in NCI-H460 cells; format: cell-based, Human; conditions: 24 h; SAHA 5 μM, SN38 0.05 μM, 3d 0.125–0.2–0.5 μM
Protocol: as §1, §2, §3

MM473 = assay: Cytotoxicity assay, primary mesothelioma MM473; format: cell-based, Human; conditions: epithelioid, 72 h, SBR assay; read-out: IC50 ± SD MM473
MM288 = assay: Cytotoxicity assay, primary mesothelioma MM288; format: cell-based, Human; conditions: for IC50: epithelioid, 72 h, SBR assay, read-out: IC50 ± SD MM288
MM487 = assay: Cytotoxicity assay, primary mesothelioma MM487; format: cell-based, Human; conditions: for IC50: biphasic, 72 h, SBR assay, read-out: IC50 ± SD MM487
MM317 = assay: Cytotoxicity assay, primary mesothelioma MM317; format: cell-based, Human; conditions: epithelioid, 72 h, SBR assay, read-out: IC50 ± SD MM317
MM491 = assay: Cytotoxicity assay, primary mesothelioma MM491; format: cell-based, Human; conditions: biphasic, 72 h, SBR assay; read-out: IC50 ± SD MM491
MM432 = assay: Cytotoxicity assay, primary mesothelioma MM432; format: cell-based, Human; conditions: for IC50: sarcomatoid, 72 h, SBR assay, read-out: IC50 ± SD MM432
MM404 = assay: Cytotoxicity assay, primary mesothelioma MM404; format: cell-based, Human; conditions: epithelioid, 72 h, SBR assay; read-out: IC50 ± SD MM404
MM481 = assay: Cytotoxicity assay, primary mesothelioma MM481; format: cell-based, Human; conditions: epithelioid, 72 h, SBR assay; read-out: IC50 ± SD MM481
A2780-Dx = assay: Cytotoxicity assay (SRB, 72 h) A2780-Dx; format: cell-based, Human; conditions: for IC50: 72 h, SRB assay, multidrug-resistant ovarian carcinoma, read-out: IC50 ± SD A2780-Dx
JECO-1 = assay: Cytotoxicity assay (MTT, 72 h) JECO-1; format: cell-based, Human; conditions: for IC50: 72 h, MTT assay, read-out: IC50 ± SD JECO-1
DU145 = assay: Cytotoxicity assay (SRB, 72 h) DU145; format: cell-based, Human
[1] = system: hematologic cancer cell lines; assay: Screening on hematologic cancer cell lines (summary); format: cell-based; conditions: Homo sapiens, read-out: IC50 across hematologic cancer cell lines (Tables 5 and 6); span over the cell line panel, 72 h, MTT assay
[2] = system: human epithelioid mesothelioma MM473-Luc; assay: In vivo antitumor activity, orthotopic MM473-Luc xenograft; conditions: i.v. 35 mg/kg, q4dx3, treatment from day 15
A431 = assay: Cytotoxicity assay (SRB, 72 h) A431; format: cell-based, Human
[3] = system: series of human tumor cell lines; assay: Antiproliferative activity, series of human tumor cell lines (summary); format: cell-based; conditions: span over the cell line panel, 72 h, SRB assay, read-out: IC50 across the human tumor cell lines of Table 3
L-428 = assay: Cytotoxicity assay (MTT, 72 h) L-428; format: cell-based, Human; conditions: for IC50: 72 h, MTT assay, read-out: IC50 ± SD L-428
Protocol: (§4) Human tumor cells were seeded in 96-well cell culture plastic plates, allowed to attach, and exposed to scalar concentrations of the test compounds.

HepG2 = assay: Cytotoxicity assay (SRB, 72 h) HepG2; format: cell-based, Human
HT29 = assay: Cytotoxicity assay (SRB, 72 h) HT29; format: cell-based, Human
OCI-LY3 = assay: Cytotoxicity assay (MTT, 72 h) OCI-LY3; format: cell-based, Human; conditions: for IC50: 72 h, MTT assay, read-out: IC50 ± SD OCI-LY3
Protocol: as §4

Capan 1 = assay: Cytotoxicity assay (SRB, 72 h) Capan 1; format: cell-based, Human
U-2932 = assay: Cytotoxicity assay (MTT, 72 h) U-2932; format: cell-based, Human
[4] = system: primary malignant pleural mesothelioma (MPM) cell lines; assay: Primary malignant pleural mesothelioma (MPM) cell lines (summary); format: cell-based; conditions: Homo sapiens, span over the cell line panel, 72 h, read-out: IC50 across primary mesothelioma cell lines (Table 7)
MINO = assay: Cytotoxicity assay (MTT, 72 h) MINO; format: cell-based, Human; conditions: for IC50: 72 h, MTT assay, read-out: IC50 ± SD MINO
NCI-H460 NSCLC cells = assay: FACS analysis of cell cycle and apoptosis; format: cell-based, Human; conditions: 72 h at own IC80 dose, PI staining
DG-75 = assay: Cytotoxicity assay (MTT, 72 h) DG-75; format: cell-based, Human; conditions: for IC50: 72 h, MTT assay, read-out: IC50 ± SD DG-75; for percentage in parentheses after IC50 >10, DG-75: meaning not defined in the paper, given beside >10 μM
HeLa = assay: Cytotoxicity assay (SRB, 72 h) HeLa; format: cell-based, Human; conditions: read-out: IC50 ± SD HeLa
NB4 = assay: Cytotoxicity assay (MTT, 72 h) NB4; format: cell-based, Human
KM-H2 = assay: Cytotoxicity assay (MTT, 72 h) KM-H2; format: cell-based, Human; conditions: for IC50: 72 h, MTT assay, read-out: IC50 ± SD KM-H2
MAVER-2 = assay: Cytotoxicity assay (MTT, 72 h) MAVER-2; format: cell-based, Human; conditions: read-out: IC50 ± SD MAVER-2
A2780 = assay: Cytotoxicity assay (SRB, 72 h) A2780; format: cell-based, Human
[5] = meaning not defined in the paper
[6] = meaning not defined in the paper, given beside >10 μM

In the case of CCc1c2c(nc3ccc(O)cc13)-c1cc3c(c(=O)n1C2)COC(=O)[C@]3(O)CC [SN38], the “H2A.X induction (DNA damage)” value (H2A.X) is reported as “completely ineffective in H2A.X induction”, the p53 activation (p53) is reported as “less effective in p53 up-regulation” and the CycD1 regulation (CycD1) is reported as “didn’t show any effect”. For the same molecule, the IC80 (NCI-H460; NCI-H460 cells) was about 0.05 µM and the P16 regulation (p16) was “didn’t show any effect”.

O=c1[nH]cc(F)c(=O)[nH]1 [Compound 5-FU] was tested, and the IC50 (MM473) was 35.2 ± 8.4 µM, the IC50 (MM288) was over 200 µM and the “percentage in parentheses after IC50 >200, MM288” value (MM288; [5]) was 35%. For the same molecule, the IC50 (MM487) was over 200 µM, the “percentage in parentheses after IC50 >200, MM487” value (MM487; [5]) was 48% and the IC50 (MM317) was 17.9 ± 3.1 µM. For the same molecule, the IC50 (MM491) was 44 ± 10.3 µM, the “percentage in parentheses after IC50 >200, MM432” value (MM432; [5]) was 34% and the IC50 (MM432) was over 200 µM. The IC50 (MM404) was 52.2 ± 8.7 µM and the IC50 (MM481) was 27.4 ± 2.2 µM.

CCc1c2c(nc3ccc(OC(=O)N4CCC(N5CCCCC5)CC4)cc13)-c1cc3c(c(=O)n1C2)COC(=O)[C@]3(O)CC [Irinotecan] showed an IC50 (MM288; Homo sapiens) of 14.9 ± 2 µM, an IC50 (MM487; Homo sapiens, MM487) of 9.4 ± 0.7 µM and an IC50 (A2780-Dx; Homo sapiens, A2780/DX) of 20.1 ± 2.9 µM. The IC50 (JECO-1; Homo sapiens) was over 10 µM, the “percentage in parentheses after IC50 >10, JECO-1” value (JECO-1; [6]) was 48% and the IC50 (DU145; Homo sapiens, DU-145, read-out: IC50 ± SD DU145) was 2.8 ± 0.07 µM. The IC50 [1] was over 10 µM, the “antitumor activity (BLI signal, average radiance)” value [2] was “only a marginal antitumor effect” and the IC50 (A431; Homo sapiens, A-431, read-out: IC50 ± SD A431) was 4.1 ± 0.1 µM. It also gave an IC50 [3] of over 1.5 µM, an IC50 (MM317; Homo sapiens) of 7 ± 1 µM and an IC50 (L-428; Homo sapiens, L-428) of over 10 µM. For the same molecule, the “percentage in parentheses after IC50 >10, L-428” value (L-428; [6]) was 0%, the IC50 (HepG2; Homo sapiens, HepG2, read-out: IC50 ± SD HepG2) was 4 ± 0.8 µM and the IC50 (HT29; Homo sapiens, HT-29, read-out: IC50 ± SD HT29) was 4.8 ± 0.4 µM. For the same molecule, the IC50 (OCI-LY3; Homo sapiens, OCI-Ly3) was over 10 µM, the “percentage in parentheses after IC50 >10, OCI-LY3” value (OCI-LY3; [6]) was 0% and the IC50 (Capan 1; Homo sapiens, CAPAN-1, read-out: IC50 ± SD Capan 1) was 1.5 ± 0.1 µM. It also gave an IC50 (MM432; Homo sapiens) of 10 ± 2 µM, an IC50 (U-2932; Homo sapiens, U2932, read-out: IC50 ± SD U-2932) of 4.4 ± 0.8 µM and an IC50 [4] of over 7 µM. For the same molecule, the IC50 (MINO; Homo sapiens, MINO) was over 10 µM, the “percentage in parentheses after IC50 >10, MINO” value (MINO; [6]) was 36% and the “G0/1 (%)” value (NCI-H460 NSCLC cells) was 7.9%. The “G2/M (%)” value (NCI-H460 NSCLC cells) was 3.2%, the “S (%)” value (NCI-H460 NSCLC cells) was 89.0% and the “Sub-G0/1 (%)” value (NCI-H460 NSCLC cells; apoptosis) was 2.7%. The IC50 (DG-75; Homo sapiens, DG-75) was over 10 µM, the “percentage in parentheses after IC50 >10, DG-75” value (DG-75) was 0% and the IC50 (NCI-H460; Homo sapiens, NCI-H460) was 2.4 ± 0.1 µM. It also gave an IC50 (HeLa; Homo sapiens, HeLa) of 5.8 ± 0.6 µM, an IC50 (NB4; Homo sapiens, NB-4, read-out: IC50 ± SD NB4) of 1 ± 0.3 µM and an IC50 (KM-H2; Homo sapiens, KM-H2) of over 10 µM. For the same molecule, the “percentage in parentheses after IC50 >10, KM-H2” value (KM-H2; [6]) was 12%, the IC50 (MAVER-2; Homo sapiens) was 0.74 ± 0.1 µM and the IC50 (A2780; Homo sapiens, A2780, read-out: IC50 ± SD A2780) was 3.8 ± 0.5 µM.

With CCc1c2c(nc3ccc(OCCCCCCC(=O)NO)cc13)-c1cc3c(c(=O)n1C2)COC(=O)[C@]3(O)CC [CY700] the IC50 (A2780-Dx) was 5.9 ± 1 µM, the “RI (Resistance Index)” value (A2780-Dx; A2780-Dx versus A2780) was 2.4 and the IC50 (JECO-1) was 1 ± 0.4 µM. For the same molecule, the IC50 (DU145; read-out: IC50 ± SD DU145) was 0.87 ± 0.04 µM, the IC50 (A431; read-out: IC50 ± SD A431) was 0.79 ± 0.1 µM and the IC50 (L-428) was 1.7 ± 0.2 µM. For the same molecule, the IC50 (HepG2; read-out: IC50 ± SD HepG2) was 1.5 ± 0.4 µM, the IC50 (HT29; read-out: IC50 ± SD HT29) was 1.2 ± 0.2 µM and the IC50 (OCI-LY3) was 0.34 ± 0.04 µM. It also gave an IC50 (Capan 1; read-out: IC50 ± SD Capan 1) of 0.96 ± 0.08 µM, an IC50 (U-2932; read-out: IC50 ± SD U-2932) of 0.9 ± 0.3 µM and an IC50 (MINO) of 0.37 ± 0.1 µM. For the same molecule, the IC50 (DG-75) was over 10 µM, the “percentage in parentheses after IC50 >10, DG-75” value (DG-75) was 18% and the IC50 (NCI-H460) was 0.36 ± 0.02 µM. For the same molecule, the IC50 (HeLa) was 3.3 ± 0.9 µM, the IC50 (NB4; read-out: IC50 ± SD NB4) was 0.24 ± 0.06 µM and the IC50 (KM-H2) was 1.5 ± 0.5 µM. The IC50 (MAVER-2) was 0.4 ± 0.08 µM and the IC50 (A2780; read-out: IC50 ± SD A2780) was 2.5 ± 0.3 µM.
